Measurements from patent publication US20200255844A1, “MULTIPLEXED RECEPTOR-LIGAND INTERACTION SCREENS” (THE REGENTS OF THE UNIVERSITY OF CALIFORNIA, priority 2017, published 2020).

How the values were obtained:
Assay type in all cases: cell-based, mouse
MOR170-1 = assay: High-throughput multiplexed odorant screening (Smell-seq), 96-well, barcode RNA-seq readout; conditions: OR MOR170-1; pair called as hit, FDR=1%
Protocol: (§1) 10. High-Throughput Odorant Screening
(§2) The OR library cell line was thawed from a liquid nitrogen frozen stock into a T-225 flask (Corning) three days before seeding into a 96-well plate for screening. The library was seeded at 6,666 cells per well in 100 ul of DMEM. 24 hours later a working concentration of 1 ug/ml of doxycycline in DMEM was added to the wells. 24 hours after induction, the media was removed from each plate and replaced with 25 ul of odorant diluted in OptiMEM. Each odor was added at three different concentrations (10 uM, 100 uM, 1 mM) in triplicate with the same amount of final DMSO (1%). Each plate contained two control odorants at a three concentration (10 uM, 100 uM, 1 mM) in triplicate and three wells containing 1% DMSO dissolved in media. The library was incubated with odorants for three hours in a cell culture incubator with the lids removed.
(§3) After odor incubation, media was pipetted out of the plates and cells were lysed by adding 25 uL of ice-cold Cells-to-cDNA II Lysis Buffer (Thermo Fisher) and pipetting up and down to homogenize and lyse cells. The lysate was then heated to 75° C. for 15 minutes and flash frozen with liquid nitrogen and kept at −80 C until further processing. Then 0.5 uL DNase I (New England Biolabs) was added to lysate, and incubated at 37° C. for 15 minutes. To anneal the RT primer, 5 ul of lysate from each well was combined with 2.5 ul of 10 mM dNTPs (New England Biosciences), 1 ul of 2 uM gene specific RT primer (OL003), and 1.5 ul of H2O. The reaction was heated to 65° C. for 5 min and cooled back down to 0° C. After annealing, 1 ul of M-MuLV Reverse Transcriptase (Enzymatics), 1 ul of buffer, and 0.25 ul of RNase Inhibitor (Enzymatics) were added to each reaction. Reactions were incubated at 42° C. for 60 min and the RT enzyme was heat inactivated at 85° C. for 10 min.
(§4) For each batch, qPCR was performed on a few wells (OL005F and OL013) with SYBR FAST qPCR Mastermix to determine the number of cycles necessary for PCR based library preparation. The reaction and cycling conditions are optimized as follows: 95° C. for 3 minutes, 40 cycles of 95° C. for 3 seconds and 60° C. for 20 seconds. After qPCR, 5 ul of each RT reaction was combined with 0.4 ul of 10 uM primers containing sequencing adaptors (OL005F and OL013), 10 ul of NEB-Next Q5 Mastermix (New England Biosciences) and 4.2 ul H2O, the PCR was carried out according to the manufacturer's protocol. The forward primer contains the P7 adaptor sequence and an index identifying the well in the assay and the reverse primer contains the P5 adaptor sequence and an index identifying the plate in the assay. PCR products were pooled together by plate and purified with the DNA Clean and Concentrator Kit. Library concentrations were quantified using a Tape Station 2200 and a Qubit (Thermo Fisher). The libraries were sequenced with two index reads and a single end 75-bp read on a NextSeq 500 in high-output mode (Illumina).
(§5) 11. Analysis of Next-Generation Sequencing Data
(§6) Samples were identified via indexing by their PCR indexes adapters unique for each well (5′ end) and unique for each plate (3′ end). The well barcodes followed the 7 bp indexing scheme in (Illumina Sequencing Library Preparation for Highly Multiplexed Target Capture and Sequencing Matthias Meyer, Martin Kircher, Cold Spring Harb Protoc; 2010; doi:10.1101/pdb.prot5448). The plate indexing scheme followed the Illumina indexing scheme. Sequencing data was demultiplexed and 15 bp barcode sequences were counted with only exact matches by custom python and bash scripts.
(§7) 12. Statistical Methods for Calling Hits
(§8) Count data was then analyzed using the differential expression package EdgeR. To filter out ORs with low representation, we set a cutoff that an OR had to contain at least 0.5% of the reads from more than 399 of the 1954 test samples. This filtered out 3 of 42 ORs which were underrepresented in the cell library (MOR172-1, MOR176-1 and MOR181-1). […]

Olfr62 = assay: High-throughput multiplexed odorant screening (Smell-seq), barcode RNA-seq readout; conditions: OR Olfr62; pair called as hit, FDR=1%
Excerpt: (§9) We subsequently screened 182 odorants at three concentrations in triplicate against the OR cell library, the equivalent of ˜85,000 individual luciferase assays including controls (FIG. 10A, Table 2). Each 96-well plate in the assay contained positive control odorants and solvent DMSO wells for normalization (FIG. 16). We used the EdgeR software package to determine differentially responsive ORs based on a negative binomial model of barcode counts. We found 114 OR-odorant interactions (out of 7,200 possible), 81 of which are novel, and 24 interactions with 15 orphan receptors (FIG. 10C, FIG. 17 and Supplementary Table 4) (FDR=1%; Benjamini-Hochberg correction). Overall 28 of 39 receptors were activated by at least one odorant, and 68 of 182 odorants activated at least one OR (Table 4). We chose 37 interactions of at least 1.2 fold induction to test individually with a previously developed transient OR assay that has several important differences (FIG. 18). Of the 28 interactions called as hits at an FDR of 1%, 21 of them replicated in this orthogonal system (FIG. 17). […] Conversely, we also detect 14 interactions that this previous study tested, but called negative.

MOR189-1 = assay: as above; conditions: OR MOR189-1; pair called as hit, FDR=1%
Excerpt: as §9

MOR139-1 = assay: as above; conditions: OR MOR139-1; pair called as hit, FDR=1%
Excerpt: as §9

MOR136-1 = assay: as above; conditions: OR MOR136-1; pair called as hit, FDR=1%
Excerpt: as §9

MOR25-1 = assay: as above; conditions: OR MOR25-1; pair called as hit, FDR=1%
Excerpt: as §9

MOR131-1 = assay: as above; conditions: OR MOR131-1; pair called as hit, FDR=1%
Excerpt: as §9

MOR5-1 = assay: High-throughput multiplexed odorant screening (Smell-seq), 96-well, barcode RNA-seq readout; conditions: OR MOR5-1; pair called as hit, FDR=1%
Protocol: as §1, §2, §3, §4, §5, §6, §7, §8

MOR23-1 = assay: High-throughput multiplexed odorant screening (Smell-seq), barcode RNA-seq readout; conditions: OR MOR23-1; pair called as hit, FDR=1%
Excerpt: as §9

SMILES: c1ccc2ncccc2c1
- Minimum Activating Concentration (MOR170-1): 100 µM
- Minimum Activating Concentration (Olfr62): 1000 µM
- Minimum Activating Concentration (MOR189-1): 1000 µM
- Minimum Activating Concentration (MOR139-1): 100 µM

SMILES: C=C(C)C1CCC(C)C(O)C1 (single isomer, unassigned; (+)) [(+)-Dihydrocarveol]
- Minimum Activating Concentration (MOR136-1): 1000 µM

SMILES: C=C(C)C1CC=C(C)C(=O)C1 (single isomer, unassigned; (-)) [(−)-Carvone]
- Minimum Activating Concentration (MOR25-1): 1000 µM

SMILES: C=C(C)C1CCC(C)C(O)C1 (single isomer, unassigned; (-)) [(−)-Dihydrocarveol]
- Minimum Activating Concentration (MOR136-1): 1000 µM
- Minimum Activating Concentration (MOR139-1): 1000 µM

SMILES: C=C(C)C1CC=C(C=O)CC1 (single isomer, unassigned; (-)) [(−)-Perillaaldehyde]
- Minimum Activating Concentration (MOR131-1): 1000 µM

SMILES: CCCCCCO [1-hexanol]
- Minimum Activating Concentration (MOR131-1): 1000 µM

SMILES: CCCCC(Br)C(=O)O (stereo not drawn) [2-Bromohexanoic acid]
- Minimum Activating Concentration (MOR5-1): 1000 µM
- Minimum Activating Concentration (MOR170-1): 1000 µM

SMILES: CCCCCCC(Br)C(=O)O (stereo not drawn) [2-Bromooctanoic acid]
- Minimum Activating Concentration (MOR5-1): 1000 µM
- Minimum Activating Concentration (MOR23-1): 1000 µM

SMILES: CCc1ccccc1O [2-Ethylphenol]
- Minimum Activating Concentration (MOR136-1): 100 µM

SMILES: CC(=O)OCCc1ccccc1 [2-Phenethyl acetate]
- Minimum Activating Concentration (MOR170-1): 1000 µM

SMILES: O=C1Cc2ccccc2O1 [2-coumaranone]
- Minimum Activating Concentration (Olfr62): 1000 µM

SMILES: CCC(C)c1nccnc1OC (stereo not drawn) [2-sec-Butyl-3-methoxypyrazine]
- Minimum Activating Concentration (MOR139-1): 1000 µM

SMILES: CCC(=O)C(=O)CC [3,4-Hexanedione]
- Minimum Activating Concentration (MOR131-1): 1000 µM

SMILES: O=C1CCOc2ccccc21 [4-Chromanone]
- Minimum Activating Concentration (MOR170-1): 100 µM
- Minimum Activating Concentration (MOR189-1): 1000 µM
- Minimum Activating Concentration (MOR139-1): 1000 µM

SMILES: CCc1ccc(O)cc1 [4-Ethylphenol]
- Minimum Activating Concentration (MOR170-1): 1000 µM

SMILES: O=C(O)CCCCCBr [6-Bromohexanoic acid]
- Minimum Activating Concentration (MOR5-1): 1000 µM
- Minimum Activating Concentration (MOR23-1): 100 µM

SMILES: CC12CCC(CC1=O)C2(C)C (stereo not drawn) [(+)-Camphor]
- Minimum Activating Concentration (MOR136-1): 100 µM

SMILES: C=C(C)[C@@H]1CC[C@@H](C)C(=O)C1 [(+)-Dihydrocarvone]
- Minimum Activating Concentration (MOR139-1): 1000 µM

SMILES: CC(C)=C1CC[C@@H](C)CC1=O [(+)-Pulegone]
- Minimum Activating Concentration (MOR139-1): 1000 µM

SMILES: COc1ccc(C=O)cc1 [Anisaldehyde]
- Minimum Activating Concentration (MOR170-1): 1000 µM

SMILES: O=C(c1ccccc1)c1ccccc1 [Benzophenone]
- Minimum Activating Concentration (Olfr62): 1000 µM
